{"source": "the Kinase Knowledgebase extract (Sharma et al. 2016)", "key": {"EGFR [1]": {"molecular_target": "EGFR (UniProt P00533)", "sequence (P00533 whole entry, looked up)": "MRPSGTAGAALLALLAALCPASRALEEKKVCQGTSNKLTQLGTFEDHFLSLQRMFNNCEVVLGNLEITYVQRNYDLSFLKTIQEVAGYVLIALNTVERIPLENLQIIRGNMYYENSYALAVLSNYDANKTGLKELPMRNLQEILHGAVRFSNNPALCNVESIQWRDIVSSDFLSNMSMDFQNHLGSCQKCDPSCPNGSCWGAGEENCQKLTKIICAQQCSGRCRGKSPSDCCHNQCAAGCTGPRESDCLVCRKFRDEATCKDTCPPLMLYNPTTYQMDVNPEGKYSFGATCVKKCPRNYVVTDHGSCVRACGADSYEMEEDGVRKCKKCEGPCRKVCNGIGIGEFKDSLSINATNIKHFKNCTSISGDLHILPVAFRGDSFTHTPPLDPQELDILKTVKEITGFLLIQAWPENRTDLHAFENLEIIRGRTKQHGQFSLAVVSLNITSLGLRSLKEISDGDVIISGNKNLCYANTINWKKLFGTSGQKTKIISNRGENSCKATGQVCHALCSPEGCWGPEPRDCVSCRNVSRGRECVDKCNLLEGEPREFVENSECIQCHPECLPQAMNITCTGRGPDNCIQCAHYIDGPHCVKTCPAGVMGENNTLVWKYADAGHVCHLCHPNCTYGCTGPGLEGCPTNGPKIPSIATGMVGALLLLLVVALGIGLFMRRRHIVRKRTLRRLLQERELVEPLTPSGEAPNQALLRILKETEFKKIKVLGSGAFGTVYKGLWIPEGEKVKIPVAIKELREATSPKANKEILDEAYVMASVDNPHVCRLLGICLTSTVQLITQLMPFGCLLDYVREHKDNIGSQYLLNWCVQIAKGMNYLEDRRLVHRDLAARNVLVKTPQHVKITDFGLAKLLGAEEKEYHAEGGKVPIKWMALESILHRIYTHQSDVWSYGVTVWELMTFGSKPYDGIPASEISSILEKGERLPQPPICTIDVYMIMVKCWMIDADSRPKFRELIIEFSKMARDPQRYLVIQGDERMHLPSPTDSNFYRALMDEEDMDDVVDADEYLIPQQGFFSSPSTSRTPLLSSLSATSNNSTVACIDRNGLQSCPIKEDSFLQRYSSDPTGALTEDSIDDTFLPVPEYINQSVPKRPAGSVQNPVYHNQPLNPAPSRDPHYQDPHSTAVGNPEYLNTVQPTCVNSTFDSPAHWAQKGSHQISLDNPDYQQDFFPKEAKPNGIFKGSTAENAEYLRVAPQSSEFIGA"}, "MAPK14 [2]": {"molecular_target": "MAPK14 (UniProt Q16539)", "sequence (Q16539 whole entry, looked up)": "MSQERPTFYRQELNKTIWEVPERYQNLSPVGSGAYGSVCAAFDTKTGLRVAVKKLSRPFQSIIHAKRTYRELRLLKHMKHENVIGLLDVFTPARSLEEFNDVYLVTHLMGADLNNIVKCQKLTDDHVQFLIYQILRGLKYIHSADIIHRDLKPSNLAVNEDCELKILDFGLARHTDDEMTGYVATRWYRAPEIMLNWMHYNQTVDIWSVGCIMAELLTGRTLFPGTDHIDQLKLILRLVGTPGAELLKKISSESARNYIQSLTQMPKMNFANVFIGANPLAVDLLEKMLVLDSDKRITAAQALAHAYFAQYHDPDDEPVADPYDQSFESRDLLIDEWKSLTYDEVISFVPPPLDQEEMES", "assay": "Inhibition of MAPK14 Kinase Activity"}, "CDK2 (human) [3]": {"molecular_target": "CDK2 (human) (UniProt P24941)", "assay": "Cell-Based Assay", "details": "mcf-7"}, "EGFR [4]": {"molecular_target": "EGFR (UniProt P00533)", "remark": "listed apart in the source"}, "EGFR (human) [5]": {"molecular_target": "EGFR (human) (UniProt P00533)", "sequence (P00533 whole entry, looked up)": "as the sequence (P00533 whole entry, looked up) above", "details": "a431"}, "MAPK14 (Balb/c mice) [6]": {"tested_on": "MAPK14 (Balb/c mice)", "assay": "Animal Model", "details": "dose or concentration not given here"}, "MAPK14 [7]": {"molecular_target": "MAPK14 (UniProt Q16539)", "assay": "Enzyme Assay"}, "PIK3CG (human)": {"molecular_target": "PIK3CG (human) (UniProt P48736)", "assay": "Inhibition of PIK3CG Kinase Activity by SPA Assay"}, "EGFR [8]": {"molecular_target": "EGFR (UniProt P00533)", "remark": "listed apart in the source"}, "EGFR [9]": {"molecular_target": "EGFR (UniProt P00533)", "details": "concentration not given here"}, "MAPK14 (human)": {"molecular_target": "MAPK14 (human) (UniProt Q16539)", "sequence (Q16539 whole entry, looked up)": "as the sequence (Q16539 whole entry, looked up) above", "assay": "Inhibition of MAPK14 Kinase Activity"}, "MAPK14 (Balb/c mice) [10]": {"tested_on": "MAPK14 (Balb/c mice)", "assay": "Inhibition of LPS Induced TNF-alpha Release in Mice"}, "ROCK2 (human)": {"molecular_target": "ROCK2 (human) (UniProt O75116)", "sequence (O75116 whole entry, looked up)": "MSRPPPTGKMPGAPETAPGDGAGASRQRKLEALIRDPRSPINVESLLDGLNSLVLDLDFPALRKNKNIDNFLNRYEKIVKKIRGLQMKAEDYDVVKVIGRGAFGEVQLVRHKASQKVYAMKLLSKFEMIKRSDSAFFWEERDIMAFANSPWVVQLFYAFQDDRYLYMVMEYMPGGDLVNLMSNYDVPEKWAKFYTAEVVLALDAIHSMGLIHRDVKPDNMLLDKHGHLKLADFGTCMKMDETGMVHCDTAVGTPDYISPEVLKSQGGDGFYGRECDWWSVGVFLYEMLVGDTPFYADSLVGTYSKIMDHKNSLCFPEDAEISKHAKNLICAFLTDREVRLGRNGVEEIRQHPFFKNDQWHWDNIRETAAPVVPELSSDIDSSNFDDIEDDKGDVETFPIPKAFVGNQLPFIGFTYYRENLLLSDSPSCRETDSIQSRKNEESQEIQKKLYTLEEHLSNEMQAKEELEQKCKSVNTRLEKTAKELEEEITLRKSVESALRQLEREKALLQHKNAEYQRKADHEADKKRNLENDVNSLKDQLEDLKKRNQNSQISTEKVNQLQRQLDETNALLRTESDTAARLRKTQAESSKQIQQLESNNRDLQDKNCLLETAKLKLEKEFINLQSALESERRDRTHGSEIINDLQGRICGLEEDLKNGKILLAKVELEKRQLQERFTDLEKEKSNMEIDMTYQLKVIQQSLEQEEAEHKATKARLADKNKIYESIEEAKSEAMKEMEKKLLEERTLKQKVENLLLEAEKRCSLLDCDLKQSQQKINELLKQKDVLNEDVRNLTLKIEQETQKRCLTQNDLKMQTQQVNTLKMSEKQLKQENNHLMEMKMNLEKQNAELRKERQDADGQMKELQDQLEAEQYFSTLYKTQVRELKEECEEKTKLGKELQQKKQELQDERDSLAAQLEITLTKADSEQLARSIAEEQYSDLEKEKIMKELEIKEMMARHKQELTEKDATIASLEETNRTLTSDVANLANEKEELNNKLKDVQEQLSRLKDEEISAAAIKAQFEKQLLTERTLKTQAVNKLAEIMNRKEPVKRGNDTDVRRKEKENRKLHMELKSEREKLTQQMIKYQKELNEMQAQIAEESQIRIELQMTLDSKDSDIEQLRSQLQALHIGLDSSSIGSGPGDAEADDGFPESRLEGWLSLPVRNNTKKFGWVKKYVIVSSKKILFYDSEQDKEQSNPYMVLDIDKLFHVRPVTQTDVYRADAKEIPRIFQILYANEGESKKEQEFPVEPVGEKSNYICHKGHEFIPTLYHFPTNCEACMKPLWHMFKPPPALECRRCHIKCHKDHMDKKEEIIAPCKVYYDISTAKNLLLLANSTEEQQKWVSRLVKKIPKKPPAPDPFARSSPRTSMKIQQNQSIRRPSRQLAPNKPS", "assay": "Inhibition of ROCK2 Kinase Activity", "details": "concentration not given here"}, "CDK2 (human) [11]": {"molecular_target": "CDK2 (human) (UniProt P24941)", "assay": "Enzyme Assay", "details": "concentration not given here"}, "EGFR (human) [12]": {"molecular_target": "EGFR (human) (UniProt P00533)"}, "EGFR [13]": {"molecular_target": "EGFR (UniProt P00533)", "details": "concentration not given here", "remark": "listed apart in the source"}, "EGFR (human) [14]": {"molecular_target": "EGFR (human) (UniProt P00533)", "details": "kb"}, "EGFR (human) [15]": {"molecular_target": "EGFR (human) (UniProt P00533)", "remark": "listed apart in the source"}, "EGFR [16]": {"molecular_target": "EGFR (UniProt P00533)", "remark": "listed apart in the source"}, "EGFR [17]": {"molecular_target": "EGFR (UniProt P00533)", "remark": "listed apart in the source"}, "EGFR (human) [18]": {"molecular_target": "EGFR (human) (UniProt P00533)", "remark": "listed apart in the source"}, "CDK2 (human) [19]": {"molecular_target": "CDK2 (human) (UniProt P24941)"}, "EGFR (murine)": {"molecular_target": "EGFR (murine) (UniProt P00533)", "details": "nih3t3"}, "EGFR (human) [20]": {"molecular_target": "EGFR (human) (UniProt P00533)", "details": "nih3t3"}, "CDK2 (human) [21]": {"molecular_target": "CDK2 (human) (UniProt P24941)", "remark": "listed apart in the source"}, "EGFR (human) [22]": {"molecular_target": "EGFR (human) (UniProt P00533)", "details": "A431"}, "EGFR (human) [23]": {"molecular_target": "EGFR (human) (UniProt P00533)", "details": "concentration not given here"}, "MAPK14 (Balb/c mice) [24]": {"tested_on": "MAPK14 (Balb/c mice)", "assay": "Cell-Based Assay", "details": "peritoneal macrophage"}, "EGFR (human) [25]": {"molecular_target": "EGFR (human) (UniProt P00533)", "details": "concentration not given here", "remark": "listed apart in the source"}, "EGFR (human) [26]": {"molecular_target": "EGFR (human) (UniProt P00533)", "details": "kb", "remark": "listed apart in the source"}, "EGFR (human) [27]": {"molecular_target": "EGFR (human) (UniProt P00533)", "details": "a431", "remark": "listed apart in the source"}, "CDK2": {"molecular_target": "CDK2 (UniProt P24941)", "assay": "Enzyme Assay"}, "EGFR [28]": {"molecular_target": "EGFR (UniProt P00533)", "remark": "listed apart in the source"}}}
{"smiles": "COCCNS(=O)(=O)c1ccc(Nc2nccc(-c3cnc4cccnn34)n2)cc1", "values": [{"measurement": "IC50", "setting": "EGFR [1]", "value": "> 10", "unit": "µM"}, {"measurement": "IC50", "setting": "MAPK14 [2]", "value": "> 10", "unit": "µM"}, {"measurement": "IC50", "setting": "CDK2 (human) [3]", "value": 390, "unit": "nM"}]}
{"smiles": "CCOC(=O)c1cn2ncnc(Nc3ccc4c(cnn4Cc4ccccc4)c3)c2c1CC", "values": [{"measurement": "IC50", "setting": "EGFR [4]", "value": 200, "unit": "nM"}]}
{"smiles": "C=CC(=O)Cc1ccc2ncnc(Nc3cccc(Br)c3)c2c1", "values": [{"measurement": "IC50", "setting": "EGFR (human) [5]", "value": 12.6, "unit": "µM"}]}
{"smiles": "Cc1cc(-c2[nH]c(-c3ccc([S+](C)[O-])cc3)nc2-c2ccc(F)cc2)ccn1", "note": "(stereo not given)", "values": [{"measurement": "difference", "setting": "MAPK14 (Balb/c mice) [6]", "value": -64, "unit": "%"}, {"measurement": "IC50", "setting": "MAPK14 [7]", "value": 370, "unit": "nM"}]}
{"smiles": "COc1ccccc1Cn1cnc2ccc(/C=C3\\SC(=O)NC3=O)cc21", "values": [{"measurement": "IC50", "setting": "PIK3CG (human)", "value": "< 1000", "unit": "nM"}]}
{"smiles": "CNc1ncc(-c2ccc(C(=O)N[C@H](CN)Cc3ccc(Cl)cc3Cl)s2)cn1", "values": [{"measurement": "IC50", "setting": "EGFR [8]", "value": "> 10", "unit": "µM"}]}
{"smiles": "CC(C)(C)c1ccc(Nc2nnc(-c3ccc(C(N)=O)cc3)c3ccccc23)cc1", "values": [{"measurement": "inhibition", "setting": "EGFR [9]", "value": 14, "unit": "%"}]}
{"smiles": "CONC(=O)c1ccc(C)c(Nc2nc(N(C)CC(C)(C)C)nc(N3CCCN(C)CC3)n2)c1", "values": [{"measurement": "Ki", "setting": "MAPK14 (human)", "value": 4.2, "unit": "nM"}, {"measurement": "ED50", "setting": "MAPK14 (Balb/c mice) [10]", "value": "Between 3 to 10 mg kg-1"}]}
{"smiles": "CN(C(=O)C1CCCCC1)c1ccc2c(c1)nc(NC(=O)c1cccs1)n2CCC(N)=O", "values": [{"measurement": "inhibition", "setting": "ROCK2 (human)", "value": -1, "unit": "%"}, {"measurement": "inhibition", "setting": "CDK2 (human) [11]", "value": 7, "unit": "%"}, {"measurement": "IC50", "setting": "EGFR (human) [12]", "value": "> 6", "unit": "µM"}]}
{"smiles": "CN1CCN(Cc2ccc(Nc3nc4ncc(C#N)c(Nc5ccc(Oc6ccccc6)cc5)c4s3)cc2)CC1", "values": [{"measurement": "inhibition", "setting": "EGFR [13]", "value": 0, "unit": "%"}]}
{"smiles": "COc1cc2ncnc(Nc3cccc(Cl)c3F)c2cc1OC1CCN(C(=O)OCCN2CCCCC2)CC1", "values": [{"measurement": "IC50", "setting": "EGFR (human) [14]", "value": 10, "unit": "nM"}, {"measurement": "IC50", "setting": "EGFR (human) [15]", "value": 2, "unit": "nM"}]}
{"smiles": "COC(=O)c1ccc(NCc2cc(O)ccc2O)cc1", "values": [{"measurement": "IC50", "setting": "EGFR [16]", "value": 250, "unit": "nM"}]}
{"smiles": "c1ccc(-c2cnc(Nc3ccc(OCCN4CCCC4)cc3)s2)cc1", "values": [{"measurement": "IC50", "setting": "EGFR [17]", "value": "> 10", "unit": "µM"}]}
{"smiles": "COc1cc2ncc(C#N)c(Nc3cccc(C)c3)c2cc1OC", "values": [{"measurement": "Ki", "setting": "EGFR (human) [18]", "value": 44, "unit": "nM"}]}
{"smiles": "NC(=O)c1sc(-c2ccsc2)cc1N", "values": [{"measurement": "IC50", "setting": "CDK2 (human) [19]", "value": 61, "unit": "µM"}]}
{"smiles": "COc1ccccc1Oc1cccc2nc(N)nc(N)c12", "values": [{"measurement": "IC50", "setting": "EGFR (murine)", "value": "> 100", "unit": "µM"}]}
{"smiles": "Cc1cc(Nc2ncnc3ccc(N4CCOCC4)cc23)ccc1OC1CCN(C(=O)CC(C)(C)C)CC1", "values": [{"measurement": "IC50", "setting": "EGFR (human) [20]", "value": "> 10", "unit": "µM"}]}
{"smiles": "NC(=O)c1c(NC(=O)CN2C(=O)CCC2=O)sc2c1CCC2", "values": [{"measurement": "IC50", "setting": "CDK2 (human) [21]", "value": 8, "unit": "µM"}]}
{"smiles": "CCc1cc2cccc(C#CCCc3ccccc3)c2cc1CC", "values": [{"measurement": "IC50", "setting": "EGFR (human) [22]", "value": 14, "unit": "nM"}]}
{"smiles": "CCCOC(=O)c1c[nH]c2c(=O)[nH]c3ccc(S(=O)(=O)C4CC[C@H](N)C4)cc3c12", "note": "(stereo not given in full)", "values": [{"measurement": "inhibition", "setting": "EGFR (human) [23]", "value": 3, "unit": "%"}, {"measurement": "inhibition", "setting": "ROCK2 (human)", "value": 3, "unit": "%"}]}
{"smiles": "OCCC#Cc1nc(-c2ccc(F)cc2)c(-c2ccncc2)n1CCCc1ccccc1", "values": [{"measurement": "IC50", "setting": "MAPK14 [7]", "value": 16.1, "unit": "nM"}, {"measurement": "IC50", "setting": "MAPK14 (Balb/c mice) [24]", "value": 19.2, "unit": "nM"}]}
{"smiles": "N#Cc1cnc2sc(C(=O)Nc3ccc(NCCCN4CCOCC4)cc3)c3c2c1N(c1c(Cl)ccc2c1OCO2)C(=O)N3", "values": [{"measurement": "inhibition", "setting": "EGFR (human) [25]", "value": 11, "unit": "%"}]}
{"smiles": "Fc1ccc(Nc2ncnc3ccc(-c4ccc(CCN5CCOCC5)s4)cc23)cc1Cl", "values": [{"measurement": "IC50", "setting": "EGFR (human) [26]", "value": 190, "unit": "nM"}]}
{"smiles": "O=C1NC(=O)N(CCc2ccccc2)/C1=C/c1ccc(O)cc1", "values": [{"measurement": "IC50", "setting": "EGFR (human) [27]", "value": 27, "unit": "µM"}]}
{"smiles": "COc1cc(OC)c(/C=C/S(=O)(=O)Cc2ccc(OC)c(NC(C)C(=O)O)c2)c(OC)c1", "note": "(stereo not given)", "values": [{"measurement": "IC50", "setting": "CDK2", "value": "> 10", "unit": "µM"}, {"measurement": "IC50", "setting": "EGFR [28]", "value": 8, "unit": "µM"}]}
